# Experimental data: patent US10960087B2, “Compositions and methods for treatment of diabetic retinopathy” (NOVARTIS AG, priority 2007, dated 2021)
# pEC50: −log10 of the molar value. Where two headings read alike, the source gives them in different places.
# Columns and labels:
# [1] = test system: human mononucleocytes (PBMC) stimulated with staphylococcal enterotoxin B (SEB); test: cells; assay type: cell-based
# LFA-1 = LFA-1 (Homo sapiens, UniProt P20701); conditions: Lu et al. 2004; cited from earlier work
# Chain of LFA-1 (P20701 26-1170): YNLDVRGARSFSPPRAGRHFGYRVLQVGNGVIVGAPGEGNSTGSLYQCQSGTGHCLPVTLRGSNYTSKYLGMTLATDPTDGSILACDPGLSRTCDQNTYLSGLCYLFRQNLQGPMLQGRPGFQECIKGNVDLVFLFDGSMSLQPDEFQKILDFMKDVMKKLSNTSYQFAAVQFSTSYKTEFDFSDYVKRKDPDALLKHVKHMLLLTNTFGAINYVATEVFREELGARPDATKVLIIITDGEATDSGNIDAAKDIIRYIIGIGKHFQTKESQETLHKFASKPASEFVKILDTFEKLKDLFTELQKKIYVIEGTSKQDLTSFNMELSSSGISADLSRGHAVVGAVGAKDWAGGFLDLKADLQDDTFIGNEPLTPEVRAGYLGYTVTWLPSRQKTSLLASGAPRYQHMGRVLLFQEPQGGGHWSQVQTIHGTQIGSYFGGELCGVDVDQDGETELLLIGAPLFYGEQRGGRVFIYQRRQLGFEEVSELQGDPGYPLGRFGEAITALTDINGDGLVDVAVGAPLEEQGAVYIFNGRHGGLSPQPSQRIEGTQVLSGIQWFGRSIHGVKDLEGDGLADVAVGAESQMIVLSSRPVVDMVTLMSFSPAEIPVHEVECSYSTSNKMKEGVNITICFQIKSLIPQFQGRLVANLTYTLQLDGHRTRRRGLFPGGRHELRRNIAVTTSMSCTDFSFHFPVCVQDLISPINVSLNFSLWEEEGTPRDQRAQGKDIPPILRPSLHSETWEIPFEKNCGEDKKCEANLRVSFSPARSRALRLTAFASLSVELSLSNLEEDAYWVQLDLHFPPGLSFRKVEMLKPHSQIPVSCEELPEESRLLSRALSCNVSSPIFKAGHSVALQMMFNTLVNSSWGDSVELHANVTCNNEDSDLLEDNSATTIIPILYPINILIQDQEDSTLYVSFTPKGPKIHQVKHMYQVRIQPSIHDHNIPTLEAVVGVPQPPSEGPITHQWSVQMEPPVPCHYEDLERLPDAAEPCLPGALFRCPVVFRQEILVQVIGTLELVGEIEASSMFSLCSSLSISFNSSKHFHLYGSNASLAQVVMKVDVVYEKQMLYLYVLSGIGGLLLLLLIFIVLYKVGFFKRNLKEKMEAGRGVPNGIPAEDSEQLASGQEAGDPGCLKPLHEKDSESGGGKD
# Chain of LFA-1 (P05107 23-769 partner): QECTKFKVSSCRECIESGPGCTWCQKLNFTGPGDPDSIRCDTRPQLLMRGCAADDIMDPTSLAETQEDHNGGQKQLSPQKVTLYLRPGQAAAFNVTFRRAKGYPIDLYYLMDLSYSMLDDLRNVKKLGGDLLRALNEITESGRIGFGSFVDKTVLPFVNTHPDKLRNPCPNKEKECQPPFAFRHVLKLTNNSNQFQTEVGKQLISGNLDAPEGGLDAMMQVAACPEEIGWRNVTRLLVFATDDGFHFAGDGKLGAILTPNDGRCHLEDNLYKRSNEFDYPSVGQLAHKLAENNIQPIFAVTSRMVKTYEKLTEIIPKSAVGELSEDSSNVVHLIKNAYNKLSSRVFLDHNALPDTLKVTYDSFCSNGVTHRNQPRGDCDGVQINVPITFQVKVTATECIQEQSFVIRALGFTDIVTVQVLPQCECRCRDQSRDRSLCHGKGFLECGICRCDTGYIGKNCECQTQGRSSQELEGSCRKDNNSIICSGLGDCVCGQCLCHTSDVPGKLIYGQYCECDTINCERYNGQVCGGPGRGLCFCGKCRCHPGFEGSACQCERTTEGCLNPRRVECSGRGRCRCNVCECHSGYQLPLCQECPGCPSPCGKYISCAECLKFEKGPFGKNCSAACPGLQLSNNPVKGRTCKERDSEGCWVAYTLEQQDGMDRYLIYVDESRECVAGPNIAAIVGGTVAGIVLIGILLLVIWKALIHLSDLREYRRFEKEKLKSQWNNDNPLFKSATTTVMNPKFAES
Compound,pEC50 ([1]; read-out: EC50 Cytokine Release GM-CSF),pEC50 ([1]; read-out: EC50 Cytokine Release IFNγ),pEC50 ([1]; read-out: EC50 Cytokine Release IL-1α),pEC50 ([1]; read-out: EC50 Cytokine Release IL-1β),pEC50 ([1]; read-out: EC50 Cytokine Release IL-2),pEC50 ([1]; read-out: EC50 Cytokine Release IL-3),pEC50 ([1]; read-out: EC50 Cytokine Release IL-4),pEC50 ([1]; read-out: EC50 Cytokine Release IL-5),pEC50 ([1]; read-out: EC50 Cytokine Release IL-6),pEC50 ([1]; read-out: EC50 Cytokine Release IL-10),pEC50 ([1]; read-out: EC50 Cytokine Release IL-12p40),pEC50 ([1]; read-out: EC50 Cytokine Release IL-13),pEC50 ([1]; read-out: EC50 Cytokine Release IP-10),pEC50 ([1]; read-out: EC50 Cytokine Release MCP-1),pEC50 ([1]; read-out: EC50 Cytokine Release MIP-1α),pEC50 ([1]; read-out: EC50 Cytokine Release TNF-α),Mode of antagonism of LFA-1 (LFA-1)
O=C(NC(Cc1cc(=O)[nH]c2ccccc12)C(=O)O)c1ccc(Cl)cc1 (centres unmarked) [Rebamipide],< 3.00,< 3.00,< 3.00,< 3.00,< 3.00,< 3.00,< 3.00,< 3.00,< 3.00,< 3.00,< 3.00,< 3.00,< 3.00,< 3.00,< 3.00,< 3.00,–
efalizumab: antibody directed against LFA-1,–,–,–,–,–,–,–,–,–,–,–,–,–,–,–,–,directly competitive antagonist of LFA-1
